# According to patent US5141627A, “Chelators whose affinity for calcium ion is increased by illumination” (The Regents of the University of California, priority 1989, dated 1992):
# Where two headings read alike, the source gives them in different places.
# How the values were obtained:
# [1] = Mg2+ affinity in Mg/EGTA buffers; format: binding; conditions: 0.1-0.15M ionic strength, pH 7.0-7.4, 20-23° C.
# Experimental: Ca^2+ -binding constants for chelators before and after photolysis were determined by monitoring UV spectra during titration of EGTA or HEEDTA buffers to varying free Ca^2+ levels.
# Free [Mg^2+ ] was likewise controlled by Mg/EGTA buffers, assuming an apparent dissociation constant for the Mg.EGTA complex (including its monoprotonated form) of 6 mM at pH 7.60 in 0.1M ionic strength; see R. Y. Tsien, et al. (1986) and A. E. Martell, et al. (1974).
# [2] = Yield of high affinity chelator / low-affinity side product after photolysis; format: physicochemical; conditions: after photolysis
# Experimental: Because of the direct conjugation of the dialkylamine moiety with the diazoketone group, diazo-2 has a large absorbance in the 350-400 nm range, which shifts 50 nm to shorter wavelengths on binding Ca^2+ (FIG. 1A). The dissociation constant for Ca^2+ is relatively high, at 2.2 μM, due to the electron withdrawing ability of the carbonyl group. Photolysis occurs at 365 nm with a quantum yield of 0.030. The peak at […] in zero Ca^2+ decreases to near baseline giving a spectrum similar to that of unsubstituted BAPTA, although a small peak remains at 355 nm (FIG. 1B). […] The reaction of diazo-2 with dilute aqueous acid should give the same product whose absorbance spectrum indeed matched that of the residual peak at 355 nm after photolysis in low Ca^2+. […] Once the extinction coefficient for the hydroxyacetyl derivative was known, the amount of the side product arising from photolysis is calculated to be about 10%.
# [3] = Flash photolysis kinetics of carboxylic acid formation (H+ release, cresol red); format: physicochemical; conditions: pH 8.0, 20° C.; for τ, time constant of phenylacetate formation and H+ release after flash photolysis, free: zero [Ca2+]
# Excerpt: When a diazoketone is photolyzed in aqueous solution the major ultimate product is a carboxylic acid. […] Product formation is thus accompanied by proton release generated (Compound 3c, Scheme I). Product formation is thus accompanied by proton release which is readily monitored spectroscopically if a suitable acid-base indicator is used. Cresol red (pKa 8.2) is chosen to monitor proton release following flash photolysis of the diazo compounds in aqueous solutions adjusted to pH 8. […] The absorbance of cresol red at 572 nm decreases with decreasing pH. As the carboxylic acid product, 3c, is generated, the solution acidifies and the transmittance of the sample is expected to rise. […] The chemical structure of the photo-labile chromophore in diazo-3 is essentially identical to that in diazo-2 (FIG. 6, Scheme IV). Correspondingly, flash photolysis of diazo-3 under identical conditions yield experimental traces which were qualitatively the same as those obtained for diazo-2. In Table I is presented the characteristic time constants for carboxylic acid formation following flash photolysis of diazo-2 and diazo-3. Flash photolysis of Ca^2+ -bound diazo-2 produced the carboxylic acid with a characteristic time of 134 μs. The time slowed to 433 μs when Ca^2+ -free diazo-2 was photolyzed.
# Diazo-2 was dissolved at 70 μM concentration in 100 mM KCl, 40 μM H4. BAPTA, and enough cresol red to yield OD572 =0.1 after the solution has been adjusted to pH 8. Transmitted light intensity at 572 nm was monitored using an HG-Xe.arc lamp, a monochromator, a photo multiplier and a Biomation transient recorder. Each small division of the ordinate corresponds to 0.002 absorbance unit. The small upward spike at time zero is an optical artifact from the xenon flash lamp. The solid trace is from the sample containing diazo-2. For comparison, the dotted trace is from a photochemically inert sample containing cresol red in 100 mM KCl at pH about 8.
# Kinetics of the conversion of diazo-2 and diazo-3 to the carboxylic acid products and the kinetics of Ca^2+ binding by photolyzed diazo-2 were measured by flash photolysis and pH monitoring. The experiments were done in a Dialog apparatus (Garching, FRG) normally used for temperature jumps. The xenon flash lamp was a Model 6100SP7 (Photochemical Research Associates, London, Ontario, Canada) modified to give a light pulse with a full width at half maximum of 85 μs. The output of the xenon lamp was passed through a UG-2 filter to yield broad-band UV radiation in the 330-390 range. Since neither the flash lamp nor the kinetic spectrometer was optimized for light energy, the response amplitudes achieved in the experiments are far from those attainable during a biological experiment. […]
# [4] = after photolysis, read-out: Kd (Mg2+), after photolysis
SMILES,"Kd [1, 4] [mM]","Kd ([1]; before photolysis, read-out: Kd (Mg2+), before photolysis) [mM]",Photolysis yield (yield of high affinity Ca2+ chelator after photolysis) [2],"τ, time constant of phenylacetate formation and H+ release after flash photolysis, +Ca2+ ([3]; saturating [Ca2+], additional fast alkalinization component present) [μs]","τ, time constant of phenylacetate formation and H+ release after flash photolysis, free [3] [μs]","τ, time constant of phenylacetate formation and H+ release after flash photolysis, free ([3]; listed as Diazo-3) [μs]"
"Cc1ccc(N(CC(=O)O)CC(=O)O)c(OCCOc2cc(C(=O)C=[N+]=[N-])ccc2N(CC(=O)O)CC(=O)O)c1 [diazo-2, 1-(2-bis(carboxymethyl)amino-5-methyl) phenoxy-2-(2-bis(carboxymethyl)amino-5-(diazoacetyl)phenoxy) ethane]",3.4,5.5,90,134,433,
"COc1cc(C(=O)C=[N+]=[N-])ccc1N(CC(=O)O)CC(=O)O [diazo-3, 2-methoxy-4-(diazoacetyl)aniline-N, N-diacetic acid]",~20,,0,,239,238
